Measurements: patent US5760235A, “Anticoagulant peptide derivatives and pharmaceutical compositions containing the same as well as a process for preparation thereof” (Gyogyszerkutato Intezet Kft., priority 1992, dated 1998)

Experiments:
native whole human blood = test: In vitro whole blood clotting time (WBCT), native human blood; type: biochemical; set-up: unit not given here
Experimental: (§1) The antithrombin activity of the compounds of general formula (I) was determined by the usual method [Bagdy et al.: Thromb Haemostas 67, 325-330 (1992)] by measuring whole blood clotting time (WBCT), thrombin time (TT) and activated partial thromboplastin time (APTT). The in vitro activity of some compounds of the invention assayed on native human blood (non-anticoagulated clotting) (WBCT) and on citrated blood plasma (TT and APTT) is presented in Table 1.
(§2) ^2 WBCT = whole blood clotting time, TT = thrombin time, APTT =
(§3) activated partial thromboplastin time parameter. The figures represent
(§4) concentrations of the compounds required to double the clotting time of
(§5) native whole human blood or of citrated blood plasma.

citrated blood plasma [1] = test: In vitro thrombin time (TT), citrated blood plasma; type: biochemical, human; set-up: unit not given here
Experimental: as §1, §2, §3, §4, §5

citrated blood plasma [2] = test: In vitro activated partial thromboplastin time (APTT), citrated blood plasma; type: biochemical, human; set-up: unit not given here
Experimental: as §1, §2, §3, §4, §5

[3] = system: fibrinolysis induced by tissue plasminogen activator; test: Fibrinolysis induced by tissue plasminogen activator, thromboelastogram; type: biochemical
Description: The compounds of the general formula (I) inhibit clot formation without interfering with the natural lysis of blood clots in the body, e.g. fibrinolysis. […] Thromboelastography. In: Bang N. U., F. K. Beller, E. Deutsch, E. F. Mamman eds. Thrombosis and Bleeding Disorders. Theory and Methods. Academic Press, London, 1971: 70-76].

Compound | WBCT: concentration required to double the clotting time (native whole human blood) | TT: concentration required to double the clotting time (citrated blood plasma [1]) | APTT: concentration required to double the clotting time (citrated blood plasma [2]) | inhibitory effect on fibrinolysis induced by tissue plasminogen activator [3]
N=C(N)NCCC[C@@H](C=O)NC(=O)[C@@H]1CCCN1C(=O)[C@@H]1OCCc2ccccc21.N=C(N)NCCC[C@@H](C=O)NC(=O)[C@@H]1CCCN1C(=O)[C@@H]1OCCc2ccccc21.O=S(=O)(O)O [Example 1, D-Isochroman-1-carbonyl-L-prolyl-L-arginine aldehyde hemisulfate] | 1.55 | 0.132 | 0.60 | –
N=C(N)NCCC[C@@H](C=O)NC(=O)[C@H]1CCCN1C(=O)C(O)c1ccccc1.N=C(N)NCCC[C@@H](C=O)NC(=O)[C@H]1CCCN1C(=O)C(O)c1ccccc1.O=S(=O)(O)O (stereo partly drawn) [Example 6, D-2-Phenyl-2-hydroxyacetyl-L-prolyl-L-arginine aldehyde hemisulfate] | 0.45 | 0.040 | 0.15 | only negligible inhibitory effect
N=C(N)NCCC[C@@H](C=O)NC(=O)[C@H]1CCCN1C(=O)C(O)C1CCCCC1.N=C(N)NCCC[C@@H](C=O)NC(=O)[C@H]1CCCN1C(=O)C(O)C1CCCCC1.O=S(=O)(O)O (stereo partly drawn) [Example 8, D-2-Cyclohexyl-2-hydroxyacetyl-L-prolyl-L-arginine aldehyde hemisulfate] | 0.72 | 0.100 | 0.35 | only negligible inhibitory effect
N=C(N)NCCC[C@@H](C=O)NC(=O)[C@@H]1CCCN1C(=O)[C@H](O)C(c1ccccc1)c1ccccc1.N=C(N)NCCC[C@@H](C=O)NC(=O)[C@@H]1CCCN1C(=O)[C@H](O)C(c1ccccc1)c1ccccc1.O=S(=O)(O)O [Example 12, 3,3-Diphenyl-D-lactyl-L-prolyl-L-arginine aldehyde hemisulfate] | 0.52 | 0.077 | 0.12 | –
N=C(N)NCCC[C@@H](C=O)NC(=O)[C@H]1CCCN1C(=O)C(O)c1ccc2ccccc2c1.N=C(N)NCCC[C@@H](C=O)NC(=O)[C@H]1CCCN1C(=O)C(O)c1ccc2ccccc2c1.O=S(=O)(O)O (stereo partly drawn) [Example 13, D-2-(2-Naphthyl)-2-hydroxyacetyl-L-prolyl-L-arginine aldehyde hemisulfate] | 1.13 | 0.100 | 1.00 | –
N=C(N)NCCC[C@@H](C=O)NC(=O)[C@H]1CCCN1C(=O)C(O)c1cccc2ccccc12.N=C(N)NCCC[C@@H](C=O)NC(=O)[C@H]1CCCN1C(=O)C(O)c1cccc2ccccc12.O=S(=O)(O)O (stereo partly drawn) [Example 14, D-2-(1-Naphthyl)-2-hydroxyacetyl-L-prolyl-L-arginine aldehyde hemisulfate] | 1.04 | 0.150 | 0.52 | –
